From EPA's ToxRefDB 2

How the values were obtained:
rat [1] = conditions: Prenatal developmental toxicity study, sprague dawley, Oral, Gavage/Intubation, dose end: 15 GD
dog [2] = conditions: Subchronic oral toxicity in nonrodent, beagle, Feed, dose end: 13 week, group: systemic
mouse [3] = conditions: Carcinogenicity, cd1, Oral, Feed, dose end: 18 month, group: systemic
rat [4] = conditions: Developmental neurotoxicity study; wistar; Oral; Gavage/Intubation; dose end: 90 PND; group: cannot be grouped; systemic / in life observation / clinical signs / poor maternal care + systemic / in life observation / clinical signs / grip strength + …
dog [5] = conditions: Chronic toxicity, beagle, Oral, Feed, dose end: 52 week, group: systemic
rat [6] = conditions: Prenatal developmental toxicity study, sprague dawley, Oral, Gavage/Intubation, dose end: 15 GD; remark: listed apart in the source
rat [7] = conditions: Prenatal developmental toxicity study, sprague dawley, Oral, Gavage/Intubation, dose end: 15 GD; remark: listed apart in the source
mouse [8] = conditions: Subchronic oral toxicity in rodents, b6c3f1, Feed, dose end: 90 day, group: systemic
rat [9] = conditions: Subchronic oral toxicity in rodents, fischer, Feed, dose end: 90 day, group: systemic, systemic / hematology / hematocrit (hct) / hematocrit (hct) + systemic / hematology / hemoglobin (hgb) / hemoglobin (hgb) + systemic / …
rabbit = conditions: Prenatal developmental toxicity study, new zealand white, Oral, Gavage/Intubation, dose end: 19 GD
[10] = group: developmental, developmental / developmental malformation / bone / ossification sites + systemic / in life observation / body weight / fetal weight
[11] = group: developmental, developmental / developmental malformation / bone / ossification sites + systemic / in life observation / body weight / fetal weight + …
[12] = group: maternal, systemic / organ weight / spleen / relative to brain weight + systemic / pathology microscopic / spleen / hematopoietic cell proliferation
[13] = group: maternal, systemic / organ weight / spleen / relative to brain weight + systemic / pathology microscopic / spleen / hematopoietic cell proliferation…
[14] = systemic / clinical chemistry / alkaline phosphatase (alp/alk) / alkaline phosphatase (alp/alk) + systemic / hematology / hematocrit (hct…
[15] = systemic / pathology microscopic / adrenal gland / amyloid deposition + systemic / pathology microscopic / kidney / amyloid deposition + …
[16] = systemic / hematology / microcytosis / microcytosis + systemic / clinical chemistry / albumin / albumin + systemic / clinical chemistry / …
[17] = group: developmental, developmental / developmental malformation / bone / incomplete ossification + developmental / developmental malformation / bone / …
[18] = group: developmental, systemic / in life observation / body weight / fetal weight
[19] = group: maternal, reproductive / reproductive performance / postimplantation loss / postimplantation loss + reproductive / reproductive performance / …
[20] = systemic / hematology / erythrocyte (rbc) count differential / erythrocyte (rbc) + systemic / hematology / hematocrit (hct) / hematocrit (…
[21] = group: developmental, systemic / in life observation / body weight / fetal weight + developmental / developmental malformation / bone / fused + developmental / …
[22] = group: maternal, reproductive / reproductive performance / aborted / aborted + reproductive / reproductive performance / resorptions / resorptions + systemic…

## Cc1nn(-c2cc(NS(C)(=O)=O)c(Cl)cc2Cl)c(=O)n1C(F)F [Sulfentrazone]
Rat [1]; [10]
  LEL: 25 mg/kg/day
  LOAEL: 25 mg/kg/day
Rat [1]; [11]
  NEL: 10 mg/kg/day
  NOAEL: 10 mg/kg/day
Rat [1]; [12]
  LOAEL: 50 mg/kg/day
Rat [1]; [13]
  LEL: 50 mg/kg/day
  NEL: 25 mg/kg/day
  NOAEL: 25 mg/kg/day
Dog [2]; [14]
  LOAEL: 57 mg/kg/day
  NEL: 10 mg/kg/day
  NOAEL: 28 mg/kg/day
Dog [2]; systemic / organ weight / liver / absolute
  LEL: 28 mg/kg/day
Mouse [3]; systemic / hematology / hematocrit (hct) / hematocrit (hct) + systemic / hematology / hemoglobin (hgb) / hemoglobin (hgb)
  LOAEL: 160 mg/kg/day
Mouse [3]; systemic / hematology / hematocrit (hct) / hematocrit (hct) + systemic / hematology / hemoglobin (hgb) / hemoglobin (hgb) + systemic / …
  NOAEL: 93.9 mg/kg/day
Mouse [3]; [15]
  LEL: 46.6 mg/kg/day
  NEL: < 46.6 mg/kg/day
Rat [4]
  LEL: 25 mg/kg/day
  LOAEL: > 50 mg/kg/day
  NEL: < 25 mg/kg/day
  NOAEL: ≥ 50 mg/kg/day
Dog [5]; systemic / hematology / microcytosis / microcytosis
  LOAEL: 61.2 mg/kg/day
Dog [5]; [16]
  NEL: 9.9 mg/kg/day
  NOAEL: 24.9 mg/kg/day
Dog [5]; systemic / pathology microscopic / gallbladder / pigmentation
  LEL: 24.9 mg/kg/day
Rat [6]; [17]
  LEL: 25 mg/kg/day
  LOAEL: 25 mg/kg/day
  NEL: 10 mg/kg/day
  NOAEL: 10 mg/kg/day
Rat [6]; [12]
  LOAEL: 50 mg/kg/day
Rat [6]; [13]
  LEL: 50 mg/kg/day
  NEL: 25 mg/kg/day
  NOAEL: 25 mg/kg/day
Rat [7]; [18]
  LEL: 50 mg/kg/day
  LOAEL: > 50 mg/kg/day
  NEL: 25 mg/kg/day
  NOAEL: ≥ 50 mg/kg/day
Rat [7]; [19]
  LEL: 50 mg/kg/day
  LOAEL: > 50 mg/kg/day
  NEL: 25 mg/kg/day
  NOAEL: ≥ 50 mg/kg/day
Mouse [8]; [20]
  LOAEL: 108 mg/kg/day
  NEL: 17.8 mg/kg/day
  NOAEL: 60 mg/kg/day
Mouse [8]; systemic / hematology / hematocrit (hct) / hematocrit (hct)
  LEL: 60 mg/kg/day
Rat [9]
  LOAEL: 65.8 mg/kg/day
  NOAEL: 19.9 mg/kg/day
rabbit; [18]
  LOAEL: 375 mg/kg/day
rabbit; group: developmental, systemic / in life observation / body weight / fetal weight + developmental / developmental malformation / bone / fused
  LEL: 250 mg/kg/day
rabbit; [21]
  NEL: 100 mg/kg/day
  NOAEL: 250 mg/kg/day
rabbit; [22]
  LOAEL: 375 mg/kg/day
  NEL: 100 mg/kg/day
  NOAEL: 250 mg/kg/day
rabbit; group: maternal, reproductive / reproductive performance / resorptions / resorptions + systemic / in life observation / body weight / body weight gain + …
  LEL: 250 mg/kg/day
